In patent US10821093B2, “Antibacterial microelement chelates and the use thereof in animal feeds” (priority 2012, dated 2020):

Key:
[1] = system: Escherichia coli; assay: MIC, liquid culture dilution (single chelates and cross-dilution combinations); type: cell-based
[2] = system: Salmonella enterica; assay: as above; type: cell-based, Salmonella enterica subp. Enterica serovar enteritidis
[3] = system: Staphylococcus aureus; assay: MIC, liquid culture dilution; type: cell-based
[4] = system: Streptococcus agalactiae; assay: MIC, liquid culture dilution; type: cell-based
[5] = system: Clostridium perfringens; type: cell-based
[6] = system: Brachyspira hyodysenteriae; assay: MIC (single chelates and combinations)

Compound	Minimal inhibitory concentration (MIC) [1] [ppm]	Minimal inhibitory concentration (MIC) [2] [ppm]	Minimal inhibitory concentration (MIC) [3] [ppm]	Minimal inhibitory concentration (MIC) [4] [ppm]	Minimal inhibitory concentration (MIC) [5] [ppm]	Minimal inhibitory concentration (MIC) [6] [ppm]
NC(=O)CC(N)C(=O)[O][Cu]([NH3+])([NH3+])[O]C(=O)C(N)CC(N)=O (stereo not drawn) [Cu diammine bis-asparaginate]	1025	2050	1025	16	32	
N.N.NC(CCC(=O)O)C(=O)[O-].NC(CCC(=O)O)C(=O)[O-].[Cu+2] (stereo not drawn) [Cu diammine bis-glutamate]			387	24	97	
O=C(O)CN1CCN(CC(=O)O)CC(=O)[O][Cu][O]C(=O)C1 [Cu ethylenediamine tetraacetic acid]					160	320
O.O.O=C([O-])CN(CCN(CC(=O)[O-])CC(=O)O)CC(=O)O.[Cu+2] [Cu(H2O)2-ethylenediamine tetraacetic acid]					60	100
NC(=O)C[C@H](N)C(=O)[O-].NC(=O)C[C@H](N)C(=O)[O-].[Zn+2] [Zn bis-asparaginate]			26	51	412	
O=C([O-])c1ccccc1.O=C([O-])c1ccccc1.[Zn+2] [Zn bis-benzoate]	>4000	>4000			>4000	
NC(Cc1cnc[nH]1)C(=O)[O-].NC(Cc1cnc[nH]1)C(=O)[O-].[Zn+2] (stereo not drawn) [Zn bis-histidinate]	>4000	>4000	>4000	4	650	
O=C(O)c1ccccc1[O-].O=C(O)c1ccccc1[O-].[Zn+2] [Zn bis-salycilate]	>4000	>4000			>4000	
[NH2][Zn]1([NH2])[O]C(=O)CN(CC(=O)O)CCN(CC(=O)O)CC(=O)[O]1 [Zn diamino ethylenediamine tetraacetic acid]					100	>4000
N.N.NC(CC(=O)O)C(=O)[O-].NC(CC(=O)O)C(=O)[O-].[Zn+2] (stereo not drawn) [Zn diammine bis-aspartate]	123	247				
N.N.NC(CCC(=O)O)C(=O)[O-].NC(CCC(=O)O)C(=O)[O-].[Zn+2] (stereo not drawn) [Zn diammine bis-glutamate]			42	21	334	
O=C([O-])CN(CCN(CC(=O)O)CC(=O)O)CC(=O)[O-].[Zn+2] [Zn ethylenediamine-tetraacetic acid]					1000	450
N[C@@H](CC(=O)[O-])C(=O)[O-].[Zn+2] [Zn mono-aspartate]	74	74				
NC(CCC(=O)[O-])C(=O)[O-].[Zn+2] (stereo not drawn) [Zn mono-glutamate]	70		36	18	475	
O=C([O-])CN(CC(=O)[O-])CC(=O)O.[Zn+2] [Zn nitrolotriacetate]	40	40				
CCCC(=O)[O-].CCCC(=O)[O-].O.[Zn+2] [Zn(H2O) bis-butyrate]	110	110				
CCC(=O)[O-].CCC(=O)[O-].O.[Zn+2] [Zn(H2O) bis-propionate]	160	160				
CCCCC(=O)[O-].CCCCC(=O)[O-].O.[Zn+2] [Zn(H2O) bis-valerianate]	120	120				
Cu diaminonitrolo triacetic acid					120	200
Cu diammine asparaginate	620	620	620	20	38	
Cu diammine glutamate	688			11	43	

Compound	Minimal inhibitory concentration (MIC) [1] [ppm]	Minimal inhibitory concentration (MIC) [2] [ppm]	Minimal inhibitory concentration (MIC) [3] [ppm]	Minimal inhibitory concentration (MIC) [4] [ppm]	Minimal inhibitory concentration (MIC) [5] [ppm]	Minimal inhibitory concentration (MIC) [6] [ppm]
Cu diammine tri-asparaginate	1400	>4000	1400	43	44	
Cu diammine tri-glutamate			487	8	30	
Cu nitrolo triacetic acid					>4000	450
Zn (H2O)2-ethylenediamine tetraacetic acid					400	320
Zn asparaginate			18	37	297	
Zn diaminonitrolo triacetic acid					400	600
Zn diammine asparaginate			46	23	369	
Zn diammine aspartate	92	184				
Zn diammine bis-asparaginate			62	15	494	
Zn diammine bis-histidinate	>4000	>4000	>4000	12	1950	
Zn diammine citrate	48	98	49	49		
Zn diammine glutamate	167		61	15	245	
Zn diammine tri-asparaginate			114	14	456	
Zn diammine tri-aspartate	114	228				
Zn tri-asparaginate			18	19	450	
Zn triammine tri-glutamate			58	15	469	
Zn(H2O) bis-aspartate	103					
Zn(H2O) bis-glutamate			21	10	331	
Zn(H2O) tri-aspartate	75	70				
Zn(H2O) tri-glutamate	70		35	17	281	
Zn(NH4)4(glycine)2 [Zn tetraammine bis-glycinate]	140	140				
